Oligonucleotides are written 5' to 3', each unit as a sugar letter and its base; * is a phosphorothioate linkage, no mark a phosphodiester; rarer units and linkages stand in square brackets, end groups in braces. Plain capitals give the bases only. e = 2'-O-(2-methoxyethyl) (MOE); l = locked nucleic acid (LNA); [5mC] = 5-methylcytosine; d = 2'-deoxy (DNA)
What was measured:
mGrn mRNA [1] = assay: In vivo mGrn mRNA in heterozygous Grn^tm1.1Far mice after ICV injection; design: species or system mouse
Procedure: (§1) Grn^tm1.1Far (B6.129S4(FVB)-Grn^tm1.1Far/Mmjax; The Jackson Laboratory, Cat. No. MMRRC Strain #036771-JAX) heterozygous mice were used to assess the efficacy of CO-3544 and CO-10691 to upregulate mGrn in vivo. These mice have deletion of exon 2-13 of the mouse Grn gene. CO-3544 and CO-10691 target mouse Grn paRNA.
(§2) Mice were injected ICV with 5 μL of artificial CSF (aCSF; vehicle control), 300 μg of ASO CO-3544, or 200 μg of ASO CO-10691, each in aCSF, at a rate of 1 μL/min. For ASO CO-3544, mice were sacrificed 4 weeks post-dose for analyses. For CO-10691, mice were sacrificed 2 and 4 weeks post-dose for analyses. Mouse brain sections were processed, and Pgrn protein and Grn mRNA quantified, as described above.

mGrn mRNA [2] = assay: mGrn mRNA qPCR in Neuro2a cells transfected with ASOs; format: cell-based, mouse; conditions: Neuro2a
Grn mRNA = assay: In vivo Grn mRNA in brain regions of C57/BL6 mice after ASO injection into lateral ventricle; design: species or system mouse; conditions: 300 μg into right lateral ventricle, day 28, cortex, hippocampus, striatum (FIG. 16)
Procedure: ASO-mediated upregulation of progranulin in different brain regions in vivo was determined. ASO CO-3544 (300 μg) in PBS was injected into right lateral ventricle of 8-week-old C57/BL6 mice. A steric nontargeting control ASO (CO-1929), and vehicle (PBS) control were used as controls. Mice were sacrificed at day 28 post-injection. Tissue samples (cortex, hippocampus and striatum) were collected and processed for total RNA and protein extraction as described above. Mouse Grn mRNA quantification was performed using real time qPCR assay.

Pgrn protein = assay: In vivo Pgrn protein in heterozygous Grn^tm1.1Far mice after ICV injection (ELISA); design: species or system mouse; conditions: ICV 200 μg, 2 and 4 weeks (FIG. 24)
Procedure: as §1, §2

| Substance | increase in Grn mRNA expression as compared to aCSF (mGrn mRNA [1]; heterozygous Grn^tm1.1Far mice, ICV 300 μg, 4 weeks (FIG. 22A)) | mGrn mRNA upregulation (mGrn mRNA [2]; dose-dependent, normalized to sNTC3 (FIG. 13)) | mGRN mRNA FC (mGrn mRNA [2]; Table 14, 100 nM, 48 hours, normalized to sNTC3) [FC] | 40 nM FC (mGrn mRNA) (mGrn mRNA [2]; Table 15, 40 nM, transfection) [FC] | 80 nM FC (mGrn mRNA) (mGrn mRNA [2]; Table 15, 80 nM, transfection) [FC] | 160 nM FC (mGrn mRNA) (mGrn mRNA [2]; Table 15, 160 nM, transfection) [FC] | Grn mRNA levels increase across different brain regions (Grn mRNA) | mGrn mRNA expression as compared to aCSF (mGrn mRNA [1]; Grn^tm1.1Far mice, ICV 200 μg, 2 and 4 weeks, cortex, hippocampus, striatum, cerebellum (FIGS. 23A-D)) | murine Pgrn protein expression as compared to aCSF (Pgrn protein) |
| --- | --- | --- | --- | --- | --- | --- | --- | --- | --- |
| CO-3544: ASO targeting the mouse Grn promoter (− strand); targets mouse Grn paRNA (antisense eG*eT*eT*e[5mC]*eT*e[5mC]*e[5mC]*e[5mC]*eT*eA*eG*e[5mC]*eT*eG*eT*eG*eT*eA*eG*eT) | up to 1.5 fold | up to 1.5 fold | 1.1 | 1.2 | 1.3 | 1.4 | greater than 1.5 fold |  |  |
| CO-10691: ASO that targets mouse Grn paRNA (antisense eG*eT*lA*eG*lA*dG*dA*d[5mC]*dA*d[5mC]*d[5mC]*dT*d[5mC]*d[5mC]*d[5mC]*l[5mC]*eG*l[5mC]*eA*e[5mC]) |  |  |  |  |  |  |  | upregulated | upregulated |

Reference: patent US20250243488A1, “METHODS OF MODULATING PROGRANULIN EXPRESSION USING ANTISENSE OLIGONUCLEOTIDES TARGETING REGULATORY RNAS” (Camp4 Therapeutics Corporation, priority 2022, published 2025)
